Reference: patent US11712055B2, “Stevia composition” (PURECIRCLE SDN. BHD., priority 2011, dated 2023)
Values belong to the molecule of their own block, whether it stands above or below them.

Assays:
[1] = Water solubility; type: physicochemical; conditions: in water at 25° C.
[2] = cited from earlier work; for times sweeter than sucrose: Tanaka 1987, Phillips 1989; for times sweeter than sucrose (sensory evaluations): Crammer and Ikan 1986
[3] = Chang and Cook 1983; cited from earlier work
[4] = Kinghorn 2002; cited from earlier work

water solubility of obtained material [1]: about 0.1 % (w/v)
Molecule: rebaudioside B [Example 3]

Molecule: C=C1C[C@@]23CC[C@H]4[C@@](C)(CCC[C@@]4(C)C(=O)O[C@@H]4O[C@H](CO)[C@@H](O)[C@H](O)[C@H]4O)[C@@H]2CC[C@]1(O[C@@H]1O[C@H](CO)[C@@H](O)[C@H](O)[C@H]1O[C@@H]1O[C@@H](C)[C@H](O)[C@@H](O)[C@H]1O)C3 [Dulcoside A]
times sweeter than sucrose [2]: 30 times

water solubility of obtained material [1]: about 0.1 % (w/v)
Molecule: C=C1CC23CCC4C(C)(C(=O)[O-])CCCC4(C)C2CCC1(OC1OC(CO)C(O)C(OC2OC(CO)C(O)C(O)C2O)C1OC1OC(CO)C(O)C(O)C1O)C3.[K+] (stereo not shown) [Example 5, reb B potassium salt]

Molecule: rebaudioside C
times sweeter than sucrose [2]: 40-60 times

Molecule: C=C1C[C@@]23CC[C@H]4[C@@](C)(CCC[C@@]4(C)C(=O)O[C@@H]4O[C@H](CO)[C@@H](O)[C@H](O)[C@H]4O)[C@@H]2CC[C@]1(O[C@@H]1O[C@H](CO)[C@@H](O)[C@H](O[C@@H]2O[C@H](CO)[C@@H](O)[C@H](O)[C@H]2O)[C@H]1O[C@@H]1O[C@H](CO)[C@@H](O)[C@H](O)[C@H]1O)C3 [Reb A, rebaudioside A]
times sweeter than sucrose (sensory evaluations) [2]: 350-450 times | stability in carbonated beverages [3]: heat and pH stability

Molecule: C=C1C[C@@]23CC[C@H]4[C@@](C)(CCC[C@@]4(C)C(=O)O[C@@H]4O[C@H](CO)[C@@H](O)[C@H](O)[C@H]4O)[C@@H]2CC[C@]1(O[C@@H]1O[C@H](CO)[C@@H](O)[C@H](O)[C@H]1O[C@@H]1O[C@H](CO)[C@@H](O)[C@H](O)[C@H]1O)C3 [stevioside]
times sweeter than sucrose [2]: 110-270 times | stability in carbonated beverages [3]: heat and pH stability

Molecule: Rebaudioside B [reb B]
water solubility (reported) [4]: about 0.1% | times sweeter than sucrose (sensory evaluations) [2]: 300-350 times
